Laboratory results from paper PMC5218480 (PLoS ONE, 2017).

Test system: MV-4-11 cells
Assay: Gene expression microarray analysis (Affymetrix PrimeView) and GSEA
Assay type: cell-based, human
Details: gene VPS36, vacuolar protein sorting 36 homolog; Azacitidine 1 mM; LIST F

`Nc1ncn([C@@H]2O[C@H](CO)[C@@H](O)[C@H]2O)c(=O)n1` [azacitidine] was tested, and the “RFU, VPS36 (ProbeSet 11739960_a_at)” value was 118.04 RFU.
